Assay results taken from ChEMBL document CHEMBL1201862, “PubChem BioAssay data set” (2004).
Active and inactive are the calls of the source.

Key:
[1] = target: T1, Corticotropin-releasing factor receptor 2/Corticotropin-releasing factor-binding protein (Homo sapiens, UniProt P24387+Q13324); assay: Dose Response confirmation of uHTS hits for small molecule antagonists of the CRF-binding protein and CRF-R2 receptor complex.; type: functional; conditions: read-out: IC50_Mean
T1 sequence (Q13324 whole entry): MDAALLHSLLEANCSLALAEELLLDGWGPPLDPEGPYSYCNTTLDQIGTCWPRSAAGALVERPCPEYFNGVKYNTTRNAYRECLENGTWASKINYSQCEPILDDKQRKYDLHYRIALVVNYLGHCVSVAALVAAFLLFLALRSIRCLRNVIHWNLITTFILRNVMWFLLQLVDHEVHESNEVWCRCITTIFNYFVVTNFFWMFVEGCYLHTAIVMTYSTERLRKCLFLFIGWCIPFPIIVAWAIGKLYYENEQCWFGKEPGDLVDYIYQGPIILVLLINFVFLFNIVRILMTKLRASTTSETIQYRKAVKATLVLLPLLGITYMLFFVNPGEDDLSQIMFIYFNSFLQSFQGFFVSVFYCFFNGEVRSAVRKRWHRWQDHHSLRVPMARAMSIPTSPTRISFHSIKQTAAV
T1 sequence (P24387 whole entry): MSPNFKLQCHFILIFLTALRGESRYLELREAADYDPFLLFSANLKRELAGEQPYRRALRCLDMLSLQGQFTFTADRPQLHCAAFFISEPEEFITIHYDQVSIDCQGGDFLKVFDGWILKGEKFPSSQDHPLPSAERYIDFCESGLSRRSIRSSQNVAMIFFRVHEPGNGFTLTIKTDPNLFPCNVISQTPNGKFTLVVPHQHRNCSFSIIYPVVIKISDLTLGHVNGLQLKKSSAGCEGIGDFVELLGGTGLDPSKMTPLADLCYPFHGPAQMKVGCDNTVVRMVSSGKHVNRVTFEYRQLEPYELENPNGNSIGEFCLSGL

[2] = target: T1, Corticotropin-releasing factor receptor 2/Corticotropin-releasing factor-binding protein; assay: activators of CRF receptor 2 with binding protein – uHTS hits, confirmation (AID 602473); type: functional; conditions: read-out: EC50_Mean
[3] = test system: Streptococcus sp. 'group A'; assay: growth inhibition of control SK(-) GAS strain, dose response, counter-screen for streptokinase expression inhibitor project, luminescence, kanamycin, BacTiterGlo, confirmation (AID 1900); type: functional, organism-based
Streptokinase A = target: T2, Streptokinase A (Streptococcus pyogenes serotype M1, UniProt P10520); assay: S. pyogenes streptokinase expression inhibitors, potency, dose response, plasminogen activation absorbance, OD405 (AID 1914); type: functional, Streptococcus pyogenes M1 GAS;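 also: secreted streptokinase activity via plasminogen activation per viability signal from cell pellet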
T2 sequence (P10520 whole entry): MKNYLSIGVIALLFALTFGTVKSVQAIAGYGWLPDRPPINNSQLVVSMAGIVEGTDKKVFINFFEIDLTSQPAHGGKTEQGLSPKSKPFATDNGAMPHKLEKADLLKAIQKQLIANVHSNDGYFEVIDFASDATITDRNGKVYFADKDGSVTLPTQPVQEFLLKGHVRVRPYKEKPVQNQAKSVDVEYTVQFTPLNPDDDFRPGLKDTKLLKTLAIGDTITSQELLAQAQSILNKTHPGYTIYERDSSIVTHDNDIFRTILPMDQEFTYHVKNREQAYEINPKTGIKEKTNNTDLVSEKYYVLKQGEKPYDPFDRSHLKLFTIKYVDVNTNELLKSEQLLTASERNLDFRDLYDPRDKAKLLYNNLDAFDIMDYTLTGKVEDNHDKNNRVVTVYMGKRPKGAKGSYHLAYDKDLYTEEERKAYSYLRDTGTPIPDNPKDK

Streptococcus = assay: Group A Streptococcus viability loss, dose response, counter-screen for streptokinase expression inhibitor project, luminescence, BacTiterGlo (AID 1915); type: functional, organism-based;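 also: potency for reduction of bacterial viability or growth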
[4] = NIH-3T3 fibroblast cytotoxicity, dose response, cytotoxicity control, cell-based, fluorescence, Alamar Blue, secondary assay (AID 2327); type: functional;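 also: NIH-3T3 mouse fibroblasts cultured with fluconazole at 8 µg/mL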
[5] = C. albicans growth with fluconazole, confirmation, fluorescence, retest (AID 2467); type: functional, cell-based
[6] = Luminescence Cell-Based Dose Confirmation HTS to Identify Activators of 5'UTR Stem-Loop Driven Alpha-Synuclein mRNA Translation in H4 Neuroglioblastoma Cells. [Related pubchem assays: 1829 (Project Summary), 1814 (Primary HTS)]; type: functional
[7] = Luminescence Cell-Based Dose Response HTS to Identify Activators of Luciferase Translation or Activity in H4 […] Cells. [Related pubchem assays: 1829 (Project Summary), 1814 (Primary HTS)]; type: functional
H4 = assay: Luminescence Cell-Based Dose Response HTS to Identify Activators of 5'UTR Stem-Loop Driven Prion Protein mRNA Translation in H4 Neuroglioblastoma Cells. [Related pubchem assays: 1829 (Project Summary), 1814 (Primary HTS)]; type: functional; conditions: Homo sapiens
[8] = inhibitors of intracellular T. cruzi replication, confirmation, NIH3T3 host cells, beta-gal luminescence (AID 2044); type: functional, cell-based;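 also: intracellular parasites grown in NIH/3T3 mouse fibroblasts as host cells; luminescent beta-galactosidase reporter signal from transgenic T. cruzi replicating inside host cells; inhibitors lower the luminescence signal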
[9] = cytotoxicity toward NIH3T3 fibroblasts, dose response, counter-screen, cell-based, ATP luminescence, mouse fibroblasts (AID 2010); type: functional;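 also: cells exposed to compound for about 90 hours before reading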
cells = type: functional
[10] = target: FAD-linked sulfhydryl oxidase ALR (Homo sapiens, UniProt P55789); assay: inhibitors of human ALR sulfhydryl oxidase, dose response, biochemical, H2O2 detection, luminescence, cherry-pick (AID 493248)
Chain of FAD-linked sulfhydryl oxidase ALR (P55789 whole entry): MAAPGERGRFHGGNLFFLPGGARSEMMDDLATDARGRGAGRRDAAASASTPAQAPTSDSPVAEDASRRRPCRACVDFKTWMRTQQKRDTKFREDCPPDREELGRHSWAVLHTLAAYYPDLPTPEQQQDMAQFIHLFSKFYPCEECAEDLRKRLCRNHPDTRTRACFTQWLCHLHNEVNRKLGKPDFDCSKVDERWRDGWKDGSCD

[11] = Luminescence Cell-Based Dose Retest to Confirm Inhibitors of Cancer Stem Cells. [Related pubchem assays (depositor defined):AID2717, AID2721]; type: functional; conditions: Homo sapiens
Cytochrome P450 2C19 = Cytochrome P450 2C19 (Homo sapiens, UniProt P33261); assay: Cytochrome panel assay with activity outcomes. Panel member name: p450-cyp2c19 Compounds with AC50 equal or less than 10 uM are considered active; type: functional
Chain of Cytochrome P450 2C19 (P33261 whole entry): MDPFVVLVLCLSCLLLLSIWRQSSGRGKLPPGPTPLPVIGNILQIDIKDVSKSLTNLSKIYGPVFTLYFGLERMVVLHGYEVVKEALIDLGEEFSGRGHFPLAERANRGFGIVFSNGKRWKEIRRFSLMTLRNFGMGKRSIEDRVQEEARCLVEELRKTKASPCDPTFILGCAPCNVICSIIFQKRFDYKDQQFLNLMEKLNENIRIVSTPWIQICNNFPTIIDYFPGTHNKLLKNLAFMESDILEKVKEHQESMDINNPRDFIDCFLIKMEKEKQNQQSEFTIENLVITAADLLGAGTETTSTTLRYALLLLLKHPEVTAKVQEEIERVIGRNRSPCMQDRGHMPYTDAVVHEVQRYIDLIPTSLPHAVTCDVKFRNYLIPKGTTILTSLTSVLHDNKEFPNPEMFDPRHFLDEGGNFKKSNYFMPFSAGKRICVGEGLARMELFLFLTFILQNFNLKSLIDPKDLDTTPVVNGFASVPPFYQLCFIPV

## O=C(NCc1cccs1)c1ccc(C[S+]([O-])Cc2cccc(Cl)c2)o1 (centres undefined)
[1]
  IC50: > 47.1 µM (inactive)
[2]
  EC50: > 53 µM (inactive)

## O=C(NC(=S)Nc1ccc(Cl)cn1)C(c1ccccc1)c1ccccc1
[3]
  EC50: 3.85 µM (active)
Streptokinase A
  EC50: > 150 µM (not active)
Streptococcus
  EC50: 6.57 µM (active)

## N#Cc1ccc(-c2nc3cc(Cl)ccc3c(=O)n2O)cc1
[4]
  EC50: > 160 µM (inconclusive)
[5]
  EC50: 1.63 µM (active)

## Cc1ccc(Oc2cc(C)nc(-c3ccccc3O)n2)cc1
[6]
  EC50: 12.9 µM (active)
[7]
  EC50: 15 µM (active)
H4
  EC50: 44 µM (inconclusive)

## Nc1nn2cc(-c3ccc(Br)cc3)nc2c2ccccc12
[4]
  EC50: 109 µM (active)
[7]
  EC50: 0.177 µM (active)
H4
  EC50: 2.38 µM (active)
[5]
  EC50: 1.24 µM (active)

## COc1ccc(C(=O)Nc2cccc(-c3ccc(N4CCOCC4)nn3)c2)cc1
[3]
  EC50: > 150 µM (not active)
Streptokinase A
  EC50: > 150 µM (not active)
Streptococcus
  EC50: > 150 µM (not active)

## O=C(CCN1CCOCC1)c1ccc(Cl)cc1
[8]
  EC50: 1.74 µM (active)
[9]
  EC50: > 60 µM (not active)
cells
  IC50: 22.5 µM (active)

## Cc1occc1C(=O)Nc1nnc(C(F)(F)F)s1
[4]
  EC50: > 150 µM (inconclusive)
[5]
  EC50: 1.95 µM (active)

## COc1ccc(/C=C/C(=O)NC(=S)NNC(=O)c2cc(OC)c(OC)c(OC)c2)cc1OC
[3]
  EC50: 3.3 µM (active)
Streptokinase A
  EC50: > 150 µM (not active)
Streptococcus
  EC50: 17.8 µM (active)

## COc1ccc(CN(CCc2c[nH]c3ccccc23)Cc2ccc(OC)cc2)cc1
[1]
  IC50: > 47.1 µM (inactive)
[2]
  EC50: > 53 µM (inactive)

## CCOC(=O)C1(Cc2cccc(OC)c2)CCCN(C(=O)CCN2CCCO2)C1 (centres undefined)
[6]
  EC50: 11.1 µM (active)
[7]
  EC50: 9.65 µM (active)
H4
  EC50: 2 µM (active)

## NC(=O)c1ccsc1NC(=O)CCS(=O)(=O)c1ccccc1
[4]
  EC50: > 150 µM (inactive)
[5]
  EC50: > 38 µM (not active)

## CCOC(=O)N1CCN(C(=O)Cn2cnc3ccccc3c2=O)CC1
[1]
  IC50: > 47.1 µM (inactive)
[2]
  EC50: > 53 µM (inactive)

## COc1ccc(OC(=O)c2cc3cc(Cl)ccc3oc2=O)cc1
cells
  IC50: 7.33 µM (active)

## CCOc1ccc(C(=O)Nc2nnc(C3=COCCO3)o2)cc1
cells
  IC50: 3.65 µM (active)

## CCN(CC)c1ccc(/C=N\NC(=O)c2cccc3cc[nH]c23)cc1
[1]
  IC50: > 47.1 µM (inactive)
[2]
  EC50: > 53 µM (inactive)

## COc1ccccc1N1CCN(CC(=O)Nc2c(C)n[nH]c2C)CC1
[1]
  IC50: > 47.1 µM (inactive)
[2]
  EC50: > 53 µM (inactive)

## CCCCNC(=O)C1CCN(Cc2ccc(OCc3ccccc3)cc2)CC1
[6]
  EC50: 18.6 µM (active)
[7]
  EC50: 70.9 µM (active)
H4
  EC50: 63.1 µM (active)

## COc1cccc(NC(=O)C(=O)N2CCOCC2)c1
[6]
  EC50: 4.35 µM (active)
[7]
  EC50: 78.3 µM (active)
H4
  EC50: 24.3 µM (active)

## CCC1(C)Cc2ccccc2-c2c1c(=O)n(Cc1ccccc1)c1nnnn21 (centres undefined)
Streptokinase A
  EC50: 4.04 µM (active)
Streptococcus
  EC50: > 150 µM (not active)

## c1ccc2c(c1)CCN(c1nc3ccccc3n3cnnc13)C2
[6]
  EC50: 0.123 µM (active)
[7]
  EC50: 26.4 µM (active)
H4
  EC50: 29.1 µM (active)

## CC1CC(N(C(=O)c2ccco2)c2ccccc2)c2ccccc2N1 (centres undefined)
[10]
  AC50: 0.465 µM (active)

## Cc1cc(C(=O)CSc2nnc(-c3cccnc3)n2-c2ccccc2)c(C)n1CC1CCCO1 (centres undefined)
[6]
  EC50: 8.04 µM (active)
[7]
  EC50: 18.7 µM (active)
H4
  EC50: > 60 µM (not active)

## CCN(CCNC(=O)c1cccc(N2CCCC2=O)c1)c1ccccc1
[10]
  AC50: 0.508 µM (active)

## O=C(Nc1ccc(-c2csc(Nc3ccc(Cl)cc3)n2)cc1)c1cc([N+](=O)[O-])cc(C(F)(F)F)c1
[3]
  EC50: 8.5 µM (active)
Streptokinase A
  EC50: > 150 µM (not active)
Streptococcus
  EC50: 7.28 µM (active)
[11]
  AC50: 1.32 µM (active)

## Cc1ccc(NC(NC(=O)c2ccccn2)C(Cl)(Cl)Cl)cc1 (centres undefined)
[10]
  AC50: 0.731 µM (active)

## O=C(NC1CCCCC1)C(c1ccc2ncccc2c1)N(Cc1ccc(F)cc1)C(=O)c1ccc2c(c1)OCCO2 (centres undefined)
[4]
  EC50: > 150 µM (inconclusive)
[5]
  EC50: > 38 µM (not active)

## CC1(C)Cc2c(sc3[nH]c(=O)n(CC(=O)NCC4CCCO4)c(=O)c23)CO1 (centres undefined)
[1]
  IC50: > 47.1 µM (inactive)
[2]
  EC50: > 53 µM (inactive)

## O=C(c1ccccc1)N1CCN(c2ncnc3c(-c4ccccc4)nsc23)CC1
[6]
  EC50: 33.1 µM (active)
[7]
  EC50: > 120 µM (not active)
H4
  EC50: 17 µM (active)

## CCOc1ccccc1N1CCN(CC(O)COC2CCCc3ccccc32)CC1 (centres undefined)
[4]
  EC50: > 160 µM (inactive)
[5]
  EC50: 1.02 µM (active)

## Cc1ccc(S(=O)(=O)N(C)CC(=O)N2CC(C)OC(C)C2)cc1 (centres undefined)
[3]
  EC50: > 150 µM (not active)
Streptokinase A
  EC50: > 150 µM (not active)
Streptococcus
  EC50: > 150 µM (not active)

## CCOC(=O)c1ccc(Nc2ncccc2[N+](=O)[O-])cc1
[6]
  EC50: 0.12 µM (active)
[7]
  EC50: 1.82 µM (active)
H4
  EC50: 0.801 µM (active)

## COC(=O)/C=c1/s/c(=C(\C#N)C(=O)NCc2ccco2)n(-c2ccccc2)c1=O
[1]
  IC50: > 47.1 µM (inactive)
[2]
  EC50: > 53 µM (inactive)

## O=C(N/N=C/c1cccc(O)c1)N/N=C/c1cccc(O)c1
[10]
  AC50: 0.797 µM (active)

## CC(=O)NCCc1c(C)n(Cc2ccccc2)c2ccccc12
[10]
  AC50: 3.02 µM (active)

## COC(=O)COc1ccc2c(-c3cccc([N+](=O)[O-])c3)cc(=O)oc2c1
cells
  IC50: 2.9 µM (active)
Cytochrome P450 2C19
  AC50: 0.251 µM (inconclusive)

## CCNc1nc(NCC)nc(N/N=C/c2ccc(N(C)C)cc2)n1
[10]
  AC50: 2.33 µM (active)

## O=C(CCCc1c[nH]c2ccccc12)N1CCCCCC1
[6]
  EC50: 8.16 µM (active)
[7]
  EC50: 7.67 µM (active)
H4
  EC50: 34.2 µM (active)

## COc1ccc(/C=N/NC(=O)c2cc[nH]n2)cc1CSc1ccccn1
[10]
  AC50: 0.68 µM (active)

## COc1ccc(NC(=O)c2cc3cccc(OC)c3o/c2=N\c2ccc(C(=O)O)cc2)cc1OC
[3]
  EC50: 2.38 µM (active)
Streptokinase A
  EC50: > 150 µM (not active)
Streptococcus
  EC50: 20.2 µM (active)

## CCc1noc(C)c1C(=O)Nc1cc(Cl)ccc1N1CCCC1
[10]
  AC50: 1.15 µM (active)

## Cc1ccc(-c2nn(-c3ccccc3)cc2/C=C2\SC(=S)N(CCCCCC(=O)O)C2=O)o1
[6]
  EC50: 12.6 µM (active)
[7]
  EC50: 16 µM (active)
H4
  EC50: 13.9 µM (active)

## COc1ccccc1-c1c[nH]nc1-c1ccc(OCc2ccc(F)cc2)cc1O
[3]
  EC50: 7.62 µM (active)
Streptokinase A
  EC50: 76.6 µM (active)
Streptococcus
  EC50: 24.5 µM (active)

## Cc1ccc(-n2c(-c3ccc(Cl)cc3)n[nH]c2=S)c(C)c1
[10]
  AC50: 2.08 µM (active)

## COc1cc(-c2csc(CCn3nc(C)cc3C)n2)cc(OC)c1OC
[10]
  AC50: 0.059 µM (active)
